Where two headings read alike, the source gives them in different places.
What was measured:
SARS-CoV-2 M^pro protein = SARS-CoV-2 M^pro protein (Severe acute respiratory syndrome coronavirus 2, UniProt P0DTD1); assay: biochemical; conditions: for IC50: three separate experiments in duplicate, read-out: IC50, mean±SD; for inhibition at 10 µM: read-out: % of inhibition at 10 µM
SARS-CoV-2 = assay: microbe, parasite or virus in culture; assay type: cell-based
[1] = Cytotoxicity MTT assay in uninfected A549-ACE2 cells; assay type: cell-based; conditions: human
Description: To evaluate the cytotoxicity profile of the compounds MTT assays were performed in A549-ACE2 cells. Uninfected cells were incubated with a range of compound concentrations (from 100 to 1 µM) for forty-eight hours, time at which the MTT substrate [3-(4,5-dimethylthiazol-2-yl)-2,5-diphenyltetrazolium bromide] was added and the formation of formazan precipitates was evaluated two hours later, using a colorimetric readout. Vehicle-treated (DMSO) cells were used as reference (100 %).

[2] = Severe acute respiratory syndrome coronavirus 2, SARS-CoV-2, A549-ACE2 cells, MOI 0.005, 48 h, read-out: EC50
[3] = Severe acute respiratory syndrome coronavirus 2, SARS-CoV-2, A549-ACE2 cells, MOI 0.005, 48 h, read-out: EC90
[4] = isolated SARS-CoV-2 M^pro, compound at 10 µM
[5] = Severe acute respiratory syndrome coronavirus 2, A549-ACE2, 48 h

Row | SMILES | IC50 (SARS-CoV-2 M^pro protein; isolated SARS-CoV-2 M^pro) | EC50 (SARS-CoV-2; [2]) | EC90 (SARS-CoV-2; [3]) | CC50 at 48 h [1] | inhibition at 10 µM (SARS-CoV-2 M^pro protein; [4]) | inhibition at 10 µM (SARS-CoV-2 M^pro protein) | EC50 (SARS-CoV-2; [5]) | EC90 (SARS-CoV-2; [5])
1 | CC(C)C[C@@]1(C(=O)N[C@H](C#N)C[C@@H]2CCNC2=O)[C@H](C)CN1C(=O)[C@@H](NC(=O)OCc1ccccc1)C(C)C [Example 1] | 1.99 ± 1 µM | 5 µM | 20 µM | > 100 µM |  |  |  | 
2 | CC(C)C[C@]1(C(=O)N[C@H](C#N)C[C@@H]2CCNC2=O)[C@@H](C)CN1C(=O)[C@@H](NC(=O)OCc1ccccc1)C(C)C [Example 2] |  |  |  |  | 0% |  |  | 
3 | CC(C)C[C@@]1(C(=O)N[C@H](C#N)C[C@@H]2CCNC2=O)[C@H](C)CN1C(=O)[C@@H](NC(=O)C(F)(F)F)C(C)C [Example 3] | 2.58 ± 0.48 µM | 10 µM | 32 µM | 100 µM |  |  |  | 
4 | CC(C)C[C@]1(C(=O)N[C@H](C#N)C[C@@H]2CCNC2=O)[C@@H](C)CN1C(=O)[C@@H](NC(=O)C(F)(F)F)C(C)C [Example 4] |  |  |  |  | 0% |  |  | 
5 | CC(C)[C@H](NC(=O)OCc1ccccc1)C(=O)N1C[C@@H](C)[C@@]1(Cc1ccccc1)C(=O)N[C@H](C#N)C[C@@H]1CCNC1=O [Example 5] | 0.13 ± 0.03 µM | 1 µM | 6 µM | > 100 µM |  |  |  | 
6 | CC(C)[C@H](NC(=O)C(F)(F)F)C(=O)N1C[C@@H](C)[C@@]1(Cc1ccccc1)C(=O)N[C@H](C#N)C[C@@H]1CCNC1=O [Example 7] | 0.2 ± 0.03 µM | 2 µM | 12 µM | > 100 µM |  |  |  | 
7 | CC(C)C(NC(=O)C1CC1)C(=O)N1CC(C)C1(Cc1ccccc1)C(=O)NC(C#N)CC1CCNC1=O [Example 8, Cyclopropylcarbonyl-L-Val-(αS,β'R)-Azf-NH[(1S)-1-cyano-2-[(3'S)-2'-oxopyrrolidin-3'-yl]ethane] | 0.39 ± 0.05 µM | 8 µM | 31 µM | > 100 µM |  |  |  | 
8 | CC(C)[C@H](NC(=O)OCc1ccccc1)C(=O)N1C[C@@H](C)[C@@]1(Cc1ccc(O)cc1)C(=O)N[C@H](C#N)C[C@@H]1CCNC1=O [Example 9] | 6.43 ± 0.53 µM |  |  |  |  |  |  | 
9 | CC(C)[C@H](NC(=O)OCc1ccccc1)C(=O)N1C[C@@H](C)[C@@]1(Cc1ccc(OC(C)(C)C)cc1)C(=O)N[C@H](C#N)C[C@@H]1CCNC1=O [Example 10] |  |  |  |  |  | 9% |  | 
10 | CC(C)[C@H](NC(=O)OCc1ccccc1)C(=O)N1C[C@@H](C)[C@@]1(Cc1c[nH]c2ccccc12)C(=O)N[C@H](C#N)C[C@@H]1CCNC1=O [Example 11] | 4.74 ± 0.81 µM | 31 µM | 48 µM | > 100 µM |  |  |  | 
11 | CC(C)C[C@@]1(C(=O)N[C@H](C#N)C[C@@H]2CCNC2=O)[C@H](C)CN1C(=O)[C@@H](NC(=O)OC(C)(C)C)C(C)(C)C [Example 12] | 4.7 ± 0.76 µM | 29 µM | > 50 µM | 100 µM |  |  |  | 
12 | C[C@@H]1CN(C(=O)[C@@H](NC(=O)OCc2ccccc2)C(C)(C)C)[C@]1(Cc1ccccc1)C(=O)N[C@H](C#N)C[C@@H]1CCNC1=O [Example 13] |  | 4 µM | 15 µM | > 100 µM |  |  |  | 
13 | C[C@@H]1CN(C(=O)[C@@H](NC(=O)C(F)(F)F)C(C)(C)C)[C@]1(Cc1ccccc1)C(=O)N[C@H](C#N)C[C@@H]1CCNC1=O [Example 15] |  | 2 µM | 13 µM | > 100 µM |  |  |  | 
14 | COC(=O)N[C@H](C(=O)N1C[C@@H](C)[C@@]1(Cc1ccccc1)C(=O)N[C@H](C#N)C[C@@H]1CCNC1=O)C(C)(C)C [Example 16] | 0.94 ± 0.17 µM | 3 µM | 20 µM | > 100 µM |  |  |  | 
15 | Cc1ccc(OCC(=O)N[C@H](C(=O)N2C[C@@H](C)[C@@]2(Cc2ccccc2)C(=O)N[C@H](C#N)C[C@@H]2CCNC2=O)C(C)(C)C)cc1 [Example 17] | 1.03 µM | 3 µM | 18 µM | 100 µM |  |  |  | 
16 | C[C@@H]1CN(C(=O)[C@@H](NC(=O)OCC(F)F)C(C)(C)C)[C@]1(Cc1ccccc1)C(=O)N[C@H](C#N)C[C@@H]1CCNC1=O [Example 18] |  | 4 µM | 7 µM | > 100 µM |  |  |  | 

Row | SMILES | IC50 (SARS-CoV-2 M^pro protein; isolated SARS-CoV-2 M^pro) | EC50 (SARS-CoV-2; [2]) | EC90 (SARS-CoV-2; [3]) | CC50 at 48 h [1] | inhibition at 10 µM (SARS-CoV-2 M^pro protein; [4]) | inhibition at 10 µM (SARS-CoV-2 M^pro protein) | EC50 (SARS-CoV-2; [5]) | EC90 (SARS-CoV-2; [5])
17 | C[C@@H]1CN(C(=O)[C@H](CCCCNC(=O)OC(C)(C)C)NC(=O)OCc2ccccc2)[C@]1(Cc1ccccc1)C(=O)N[C@H](C#N)C[C@@H]1CCNC1=O [Example 20] |  | 7 µM | 18 µM | 100 µM |  |  |  | 
18 | C[C@@H]1CN(C(=O)[C@H](CCCCN)NC(=O)OCc2ccccc2)[C@]1(Cc1ccccc1)C(=O)N[C@H](C#N)C[C@@H]1CCNC1=O [Example 21] | 3.66 µM |  |  |  |  |  |  | 
19 | C[C@@H]1CN(C(=O)[C@@H](NC(=O)OCc2ccccc2)C(C)(C)C)[C@]1(CCCCNC(=O)OC(C)(C)C)C(=O)N[C@H](C#N)C[C@@H]1CCNC1=O [Example 22] |  |  |  |  |  | 16% |  | 
20 | C[C@@H]1CN(C(=O)[C@@H](NC(=O)OCc2ccccc2)C(C)(C)C)[C@]1(CCCCN)C(=O)N[C@H](C#N)C[C@@H]1CCNC1=O [Example 23] |  |  |  |  |  | 0% |  | 
21 | C[C@@H]1CN(C(=O)[C@@H](NC(=O)OCc2ccccc2)C(C)(C)C)[C@]1(Cc1ccccc1)C(=O)N[C@H](C#N)Cc1c[nH]cn1 [Example 24] |  | 18 µM | 40 µM | > 100 µM |  | 10% |  | 
22 | CC(C)[C@@H](CC(=O)N1C[C@@H](C)[C@@]1(Cc1ccccc1)C(=O)N[C@H](C#N)C[C@@H]1CCNC1=O)NC(=O)OC(C)(C)C [Example 26] |  |  |  |  |  | 28% |  | 
23 | CC(C)[C@H](NC(=O)OCc1ccccc1)C(=O)N1C[C@@H](C)[C@@]1(Cc1ccccc1)C(=O)N[C@H](C=O)C[C@@H]1CCNC1=O [Example 28, Z-L-Val-(αS,β'R)-Azf-L-Ala(3S-2-oxopyrrolidin-3-yl)-H] | 0.005 ± 0.002 µM | 2 µM | 12 µM | > 100 µM |  |  |  | 
24 | COC(=O)N[C@H](C(=O)N1C[C@@H](C)[C@@]1(Cc1ccccc1)C(=O)N[C@H](C=O)C[C@@H]1CCNC1=O)C(C)(C)C [Example 30, Methyloxycarbonyl-L-Tbg-(αS,β'R)-Azf-L-Ala(3S-2-oxopyrrolidin-3-yl)-CHO] | 0.048 ± 0.004 µM | 15 µM | 25 µM | > 100 µM |  |  |  | 
25 | C[C@@H]1CN(C(=O)[C@@H](NC(=O)OCC(F)F)C(C)(C)C)[C@]1(Cc1ccccc1)C(=O)N[C@H](C=O)C[C@@H]1CCNC1=O [Example 31, 2,2-Difluoroethyloxycarbonyl-L-Tbg-(αS,β'R)-Azf-L-Ala(3S-2-oxopyrrolidin-3-yl)-H] | 0.024 ± 0.002 µM | 3 µM | 11 µM | > 100 µM |  |  |  | 
26 | C[C@@H]1CN(C(=O)[C@@H](NC(=O)OC(C)(C)C)C(C)(C)C)[C@]1(Cc1ccccc1)C(=O)N[C@H](/C=C/C(=O)OCc1ccccc1)C[C@@H]1CCNC1=O [Example 32] |  |  |  |  |  | 40% |  | 
27 | CC(C)C[C@@]1(C(=O)N[C@H](C#N)C[C@@H]2CCNC2=O)[C@H](C)CN1C(=O)[C@@H](NC(=O)OCC(F)F)C(C)(C)C [Example 33] | 5.94 ± 0.69 µM | 16 µM | > 25 µM | > 100 µM |  |  |  | 
28 | C[C@@H]1CN(C(=O)[C@@H](NC(=O)OC(C)(C)C)C(C)(C)C)[C@]1(CC1CCCCC1)C(=O)N[C@H](C#N)C[C@@H]1CCNC1=O [Example 35] |  | 3 µM | 20 µM | > 100 µM |  |  |  | 
29 | C[C@@H]1CN(C(=O)[C@@H](NC(=O)OCC(F)F)C(C)(C)C)[C@]1(CC1CCCCC1)C(=O)N[C@H](C#N)C[C@@H]1CCNC1=O [Example 37] |  | 4 µM | 22 µM | > 100 µM |  |  |  | 
30 | C[C@@H]1CN(C(=O)[C@@H](NC(=O)C(F)(F)F)C(C)(C)C)[C@]1(CC1CCCCC1)C(=O)N[C@H](C#N)C[C@@H]1CCNC1=O [Example 38] | 2.36 ± 0.75 µM | 25 µM | > 25 µM | > 100 µM |  |  |  | 
31 | CC(C)[C@H](NC(=O)OCC(F)F)C(=O)N1C[C@@H](C)[C@@]1(Cc1ccccc1)C(=O)N[C@H](C#N)C[C@@H]1CCNC1=O [Example 39] |  | 0.4 µM | 2 µM | > 50 µM |  |  |  | 
32 | CC(C)(C)[C@H](NC(=O)C(F)(F)F)C(=O)N1C[C@H]2[C@@H]([C@H]1C(=O)N[C@H](C#N)C[C@@H]1CCNC1=O)C2(C)C [PF-07321332, nirmatrelvir, reference compound] |  |  |  | 100 µM |  |  | < 0.2 µM | < 0.2 µM

Source: EP4501942A1, “PEPTIDOMIMETICS WITH ANTIVIRAL ACTIVITY” (priority 2023, dated 2025)
